Test results from the NIST ThermoML archive (doi:10.1016/j.fluid.2004.12.005).
Where “and” joins values, the source holds several entries; their conditions need not be identical. Identical values can stand only once.

What was measured:
[1] = excess molar enthalpy (molar enthalpy of mixing); xn = mol fraction of the nth substance listed; details: Liquid, Flow calorimetry
[2] = activity coefficient (dimensionless); of the first substance listed, at infinite dilution; xn = mol fraction of the nth substance listed; details: Liquid, Chromatography, x1 = 0
[3] = Solid-liquid equilibrium temperature; details: 100 kPa; Crystal; visual observation

COC(C)=O [methyl ethanoate] + CCCCCCCCCC
[1]
Details	excess molar enthalpy [kJ/mol]
363.15 K, 1582 kPa, x1 = 0.1148	0.686
363.15 K, 1582 kPa, x1 = 0.2149	1.18
363.15 K, 1582 kPa, x1 = 0.303	1.51
363.15 K, 1582 kPa, x1 = 0.3811	1.73
363.15 K, 1582 kPa, x1 = 0.4509	1.85
363.15 K, 1582 kPa, x1 = 0.5135	1.91
363.15 K, 1582 kPa, x1 = 0.5701	1.92
363.15 K, 1582 kPa, x1 = 0.6215	1.88
363.15 K, 1582 kPa, x1 = 0.6684	1.82
363.15 K, 1582 kPa, x1 = 0.7112	1.74
363.15 K, 1582 kPa, x1 = 0.7507	1.62
363.15 K, 1582 kPa, x1 = 0.787	1.49
363.15 K, 1582 kPa, x1 = 0.8206	1.34
363.15 K, 1582 kPa, x1 = 0.8518	1.18
363.15 K, 1582 kPa, x1 = 0.8808	1.01
363.15 K, 1582 kPa, x1 = 0.9079	0.832
363.15 K, 1582 kPa, x1 = 0.9331	0.637
363.15 K, 1582 kPa, x1 = 0.9568	0.433
363.15 K, 1582 kPa, x1 = 0.9791	0.222
413.15 K, 1376 kPa, x1 = 0.1148	0.639
413.15 K, 1376 kPa, x1 = 0.2149	1.09
413.15 K, 1376 kPa, x1 = 0.303	1.4
413.15 K, 1376 kPa, x1 = 0.3811	1.61
413.15 K, 1376 kPa, x1 = 0.4509	1.74
413.15 K, 1376 kPa, x1 = 0.5136	1.8
413.15 K, 1376 kPa, x1 = 0.5702	1.81
413.15 K, 1376 kPa, x1 = 0.6215	1.79
413.15 K, 1376 kPa, x1 = 0.6684	1.73
413.15 K, 1376 kPa, x1 = 0.7113	1.66
413.15 K, 1376 kPa, x1 = 0.7507	1.55
413.15 K, 1376 kPa, x1 = 0.787	1.43
413.15 K, 1376 kPa, x1 = 0.8206	1.29
413.15 K, 1376 kPa, x1 = 0.8518	1.13
413.15 K, 1376 kPa, x1 = 0.8808	0.969
413.15 K, 1376 kPa, x1 = 0.9079	0.794
413.15 K, 1376 kPa, x1 = 0.9332	0.608
413.15 K, 1376 kPa, x1 = 0.9568	0.41
413.15 K, 1376 kPa, x1 = 0.9791	0.21

CCCCCCCCCC [decane] + CCOC(C)=O
[1]
Details	excess molar enthalpy [kJ/mol]
363.15 K, 1397 kPa, x2 = 0.0952	0.469
363.15 K, 1397 kPa, x2 = 0.1817	0.828
363.15 K, 1397 kPa, x2 = 0.2607	1.09
363.15 K, 1397 kPa, x2 = 0.3332	1.27
363.15 K, 1397 kPa, x2 = 0.3998	1.39
363.15 K, 1397 kPa, x2 = 0.4614	1.46
363.15 K, 1397 kPa, x2 = 0.5183	1.49
363.15 K, 1397 kPa, x2 = 0.5712	1.48
363.15 K, 1397 kPa, x2 = 0.6205	1.45
363.15 K, 1397 kPa, x2 = 0.6665	1.4
363.15 K, 1397 kPa, x2 = 0.7095	1.32
363.15 K, 1397 kPa, x2 = 0.7499	1.22
363.15 K, 1397 kPa, x2 = 0.7878	1.11
363.15 K, 1397 kPa, x2 = 0.8234	0.986
363.15 K, 1397 kPa, x2 = 0.8571	0.846
363.15 K, 1397 kPa, x2 = 0.8888	0.699
363.15 K, 1397 kPa, x2 = 0.9189	0.538
363.15 K, 1397 kPa, x2 = 0.9473	0.363
363.15 K, 1397 kPa, x2 = 0.9743	0.183
413.15 K, 1342 kPa, x2 = 0.0952	0.484
413.15 K, 1342 kPa, x2 = 0.1817	0.852
413.15 K, 1342 kPa, x2 = 0.2607	1.12
413.15 K, 1342 kPa, x2 = 0.3332	1.31
413.15 K, 1342 kPa, x2 = 0.3998	1.45
413.15 K, 1342 kPa, x2 = 0.4614	1.52
413.15 K, 1342 kPa, x2 = 0.5183	1.55
413.15 K, 1342 kPa, x2 = 0.5713	1.56
413.15 K, 1342 kPa, x2 = 0.6205	1.52
413.15 K, 1342 kPa, x2 = 0.6665	1.47
413.15 K, 1342 kPa, x2 = 0.7095	1.38
413.15 K, 1342 kPa, x2 = 0.7499	1.28
413.15 K, 1342 kPa, x2 = 0.7878	1.16
413.15 K, 1342 kPa, x2 = 0.8234	1.02
413.15 K, 1342 kPa, x2 = 0.8571	0.875
413.15 K, 1342 kPa, x2 = 0.8888	0.717
413.15 K, 1342 kPa, x2 = 0.9189	0.55
413.15 K, 1342 kPa, x2 = 0.9473	0.37
413.15 K, 1342 kPa, x2 = 0.9743	0.195

CCOC(C)=O [ethyl acetate] + CCCCCCCCCCCC
[2]
Details	activity coefficient
303.16 K	3.25
313.17 K	3.05
323.2 K	2.88
333.16 K	2.71

CC(=O)OC(C)C [1-methylethyl ethanoate] + CCCCCCCCCCCC
[2]
Details	activity coefficient
303.16 K	2.82
313.17 K	2.66
323.2 K	2.52
333.16 K	2.42

CCCCCCCCCCCCCC(=O)OCC [ethyl tetradecanoate]
Details	Solid-liquid equilibrium temperature
[3]	286.33 K and 286.36 K

CCOC(C)=O [ethyl acetate] + CCCCCCCCCC
[2]
Details	activity coefficient
303.16 K	3.07
313.14 K	2.95
323.17 K	2.84
333.16 K	2.75

Cc1ccc(C)cc1 [1,4-dimethylbenzene]
Details	Solid-liquid equilibrium temperature [K]
[3]	286.45

c1ccccc1 [benzene]
Details	Solid-liquid equilibrium temperature [K]
[3]	278.94

COC(C)=O [methyl ethanoate] + CCCCCC
[1]
Details	excess molar enthalpy [kJ/mol]
363.15 K, 1617 kPa, x1 = 0.0801	0.496
363.15 K, 1617 kPa, x1 = 0.1552	0.885
363.15 K, 1617 kPa, x1 = 0.2259	1.17
363.15 K, 1617 kPa, x1 = 0.2925	1.38
363.15 K, 1617 kPa, x1 = 0.3554	1.53
363.15 K, 1617 kPa, x1 = 0.4148	1.62
363.15 K, 1617 kPa, x1 = 0.471	1.66
363.15 K, 1617 kPa, x1 = 0.5244	1.67
363.15 K, 1617 kPa, x1 = 0.575	1.64
363.15 K, 1617 kPa, x1 = 0.6232	1.6
363.15 K, 1617 kPa, x1 = 0.669	1.51
363.15 K, 1617 kPa, x1 = 0.7127	1.41
363.15 K, 1617 kPa, x1 = 0.7544	1.29
363.15 K, 1617 kPa, x1 = 0.7942	1.15
363.15 K, 1617 kPa, x1 = 0.8322	0.99
363.15 K, 1617 kPa, x1 = 0.8687	0.819
363.15 K, 1617 kPa, x1 = 0.9036	0.634
363.15 K, 1617 kPa, x1 = 0.937	0.431
363.15 K, 1617 kPa, x1 = 0.9692	0.22
413.15 K, 1376 kPa, x1 = 0.0801	0.496
413.15 K, 1376 kPa, x1 = 0.1552	0.898
413.15 K, 1376 kPa, x1 = 0.2259	1.2
413.15 K, 1376 kPa, x1 = 0.2925	1.42
413.15 K, 1376 kPa, x1 = 0.3553	1.58
413.15 K, 1376 kPa, x1 = 0.4148	1.68
413.15 K, 1376 kPa, x1 = 0.471	1.73
413.15 K, 1376 kPa, x1 = 0.5244	1.74
413.15 K, 1376 kPa, x1 = 0.575	1.71
413.15 K, 1376 kPa, x1 = 0.6232	1.67
413.15 K, 1376 kPa, x1 = 0.669	1.58
413.15 K, 1376 kPa, x1 = 0.7127	1.48
413.15 K, 1376 kPa, x1 = 0.7544	1.34
413.15 K, 1376 kPa, x1 = 0.7942	1.2
413.15 K, 1376 kPa, x1 = 0.8322	1.03
413.15 K, 1376 kPa, x1 = 0.8687	0.85
413.15 K, 1376 kPa, x1 = 0.9036	0.65
413.15 K, 1376 kPa, x1 = 0.937	0.447
413.15 K, 1376 kPa, x1 = 0.9692	0.227

CCOC(C)=O [ethyl acetate] + CCCCCC
[1]
Details	excess molar enthalpy [kJ/mol]
363.15 K, 1583 kPa, x2 = 0.0377	0.176
363.15 K, 1583 kPa, x2 = 0.0764	0.356
363.15 K, 1583 kPa, x2 = 0.1162	0.534
363.15 K, 1583 kPa, x2 = 0.157	0.687
363.15 K, 1583 kPa, x2 = 0.1989	0.821
363.15 K, 1583 kPa, x2 = 0.242	0.953
363.15 K, 1583 kPa, x2 = 0.2862	1.06
363.15 K, 1583 kPa, x2 = 0.3318	1.15
363.15 K, 1583 kPa, x2 = 0.3786	1.22
363.15 K, 1583 kPa, x2 = 0.4269	1.28
363.15 K, 1583 kPa, x2 = 0.4765	1.29
363.15 K, 1583 kPa, x2 = 0.5277	1.3
363.15 K, 1583 kPa, x2 = 0.5804	1.27
363.15 K, 1583 kPa, x2 = 0.6347	1.22
363.15 K, 1583 kPa, x2 = 0.6908	1.12
363.15 K, 1583 kPa, x2 = 0.7487	0.992
363.15 K, 1583 kPa, x2 = 0.8084	0.824
363.15 K, 1583 kPa, x2 = 0.8702	0.609
363.15 K, 1583 kPa, x2 = 0.934	0.334
413.15 K, 1376 kPa, x2 = 0.0377	0.189
413.15 K, 1376 kPa, x2 = 0.0765	0.361
413.15 K, 1376 kPa, x2 = 0.1162	0.527
413.15 K, 1376 kPa, x2 = 0.1571	0.679
413.15 K, 1376 kPa, x2 = 0.199	0.815
413.15 K, 1376 kPa, x2 = 0.2421	0.939
413.15 K, 1376 kPa, x2 = 0.2864	1.05
413.15 K, 1376 kPa, x2 = 0.332	1.14
413.15 K, 1376 kPa, x2 = 0.3788	1.21
413.15 K, 1376 kPa, x2 = 0.427	1.26
413.15 K, 1376 kPa, x2 = 0.4767	1.28
413.15 K, 1376 kPa, x2 = 0.5279	1.28
413.15 K, 1376 kPa, x2 = 0.5806	1.25
413.15 K, 1376 kPa, x2 = 0.6349	1.2
413.15 K, 1376 kPa, x2 = 0.691	1.11
413.15 K, 1376 kPa, x2 = 0.7488	0.989
413.15 K, 1376 kPa, x2 = 0.8086	0.819
413.15 K, 1376 kPa, x2 = 0.8703	0.603
413.15 K, 1376 kPa, x2 = 0.934	0.33

CC(=O)OC(C)C [1-methylethyl ethanoate] + CCCCCCCCCC
[2]
Details	activity coefficient
303.16 K	2.56
313.14 K	2.48
323.17 K	2.41
333.16 K	2.36
